Drawing on patent publication US20250340557A1, “PYRIMIDINE DERIVATIVE” (ASKA PHARMACEUTICAL CO., LTD., priority 2022, published 2025), this text covers IC50 for 23 compounds.

The target of the experiment is T1, human mPGES-1 (Homo sapiens, UniProt O14684).
T1 construct: made in house; host or cells: COS-1 cells (transient transfection; microsomal fraction used as enzyme)
T1 sequence (O14684 1-152): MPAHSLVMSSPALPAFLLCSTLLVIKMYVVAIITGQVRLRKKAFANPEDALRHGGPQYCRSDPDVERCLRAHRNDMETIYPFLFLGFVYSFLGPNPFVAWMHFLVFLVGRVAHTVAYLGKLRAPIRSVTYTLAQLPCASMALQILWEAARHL
The experiment can be described thus: Test for mPGES-1 inhibitory activity (microsomal enzyme, PGE2 EIA). It is filed as biochemical. The following applies: microsomes from COS-1 cells transfected with human mPGES-1 cDNA; substrate PGH2 1 μM; 4° C., 4 minutes; PGE2 measured by EIA; read-out: h mPGES1 IC50. How it is done:
Test Example 1: Test for mPGES-1 Inhibitory Activity
Microsomes were prepared from COS-1 cells transiently transfected with a plasmid containing human mPGES-1 cDNA, and used as mPGES-1 enzyme. The mPGES-1 enzyme was diluted with a sodium phosphate buffer (pH 7.2) containing reduced glutathione (2.5 mM) and EDTA (1 mM), DMSO or a DMSO solution of a test compound (final concentration of DMSO was 2%) was added to the enzyme, and the mixture was preincubated at 4° C. for 15 minutes. Then, PGH2 (Prostaglandin H2) as the substrate was added at a final concentration of 1 μM to start the enzymatic reaction, and after incubation at 4° C. for 4 minutes, a solution of ferric chloride (25 mM) and citric acid (50 mM) was added to terminate the enzymatic reaction. Generated PGE2 (Prostaglandin E2) was measured by using Prostaglandin E2 Express EIA Kit (Cayman Chemical). IC50 values were determined by using a standard method.
For `O=C(NCc1ccc(C(F)(F)F)c(-c2nc(C(F)(F)F)cc(=O)[nH]2)c1F)C1CN(c2ccc(C(F)(F)F)cn2)C1` [Example 25, N-{2-fluoro-3-[6-oxo-4-(trifluoromethyl)-1,6-dihydropyrimidin-2-yl]-4-(trifluoromethyl)benzyl}-1-[5-(trifluoromethyl)pyridin-2-yl]azetidine-3-carboxamide], the IC50 (in general, the point on the concentration scale where inhibition reaches its midpoint) was less than 1 nM.
With `O=C(NCc1ccc(C(F)(F)F)c(-c2nc(C(F)(F)F)cc(=O)[nH]2)c1F)C1CN(c2cccc(C(F)(F)F)n2)C1` [Example 26, N-{2-fluoro-3-[6-oxo-4-(trifluoromethyl)-1,6-dihydropyrimidin-2-yl]-4-(trifluoromethyl)benzyl}-1-[6-(trifluoromethyl)pyridin-2-yl]azetidine-3-carboxamide], the half-maximal inhibitory concentration (IC50) came to 4.1 nM.
Turning to `O=C(NCc1ccc(C(F)(F)F)c(-c2nc(C(F)(F)F)cc(=O)[nH]2)c1F)C1CCN(c2ccc(Cl)cn2)CC1` [Example 27, 1-(5-chloropyridin-2-yl)-N-{2-fluoro-3-[6-oxo-4-(trifluoromethyl)-1,6-dihydropyrimidin-2-yl]-4-(trifluoromethyl)benzyl}piperidine-4-carboxamide], the IC50 is less than 1 nM.
With `O=C(NCc1ccc(C(F)(F)F)c(-c2nccc(=O)[nH]2)c1F)C1CCN(c2ccc(C(F)(F)F)cn2)CC1` [Example 28, N-[2-fluoro-3-(6-oxo-1,6-dihydropyrimidin-2-yl)-4-(trifluoromethyl)benzyl]-1-[5-(trifluoromethyl)pyridin-2-yl]piperidine-4-carboxamide], the half-maximal inhibitory concentration (IC50) was less than 1 nM.
For `O=C(NCc1ccc(C(F)(F)F)c(-c2nc(C(F)F)cc(=O)[nH]2)c1F)C1CCN(c2ccc(C(F)(F)F)cn2)CC1` [Example 29, N-{3-[4-(difluoromethyl)-6-oxo-1,6-dihydropyrimidin-2-yl]-2-fluoro-4-(trifluoromethyl)benzyl}-1-[5-(trifluoromethyl)pyridin-2-yl]piperidine-4-carboxamide], the IC50 is 11 nM.
Consider `O=C(NCc1ccc(C(F)(F)F)c(-c2nc(C(F)(F)F)cc(=O)[nH]2)c1F)C1CCN(c2ncc(Cl)cc2Cl)CC1` [Example 30, 1-(3,5-dichloropyridin-2-yl)-N-{2-fluoro-3-[6-oxo-4-(trifluoromethyl)-1,6-dihydropyrimidin-2-yl]-4-(trifluoromethyl)benzyl}piperidine-4-carboxamide], for which the IC50 was less than 1 nM.
In the case of `Cc1cccc2ccc(N3CCC(C(=O)NCc4ccc(Cl)c(-c5nc(C(F)(F)F)cc(=O)[nH]5)c4F)CC3)nc12` [Example 31, N-{4-chloro-2-fluoro-3-[6-oxo-4-(trifluoromethyl)-1,6-dihydropyrimidin-2-yl]benzyl}-1-(8-methylquinolin-2-yl)piperidine-4-carboxamide] it was less than 1 nM; in that of `O=C(NCc1ccc(Cl)c(-c2nc(C(F)(F)F)cc(=O)[nH]2)c1F)C1CCN(c2ccc(C(F)(F)F)cn2)CC1` [Example 32, N-{4-chloro-2-fluoro-3-[6-oxo-4-(trifluoromethyl)-1,6-dihydropyrimidin-2-yl]benzyl}-1-[5-(trifluoromethyl)pyridin-2-yl]piperidine-4-carboxamide], less than 1 nM; in that of `Cc1nc(-c2c(C(F)(F)F)ccc(CNC(=O)C3CCN(c4ccc(C(F)(F)F)cn4)CC3)c2F)[nH]c(=O)c1F` [Example 33, N-[2-fluoro-3-(5-fluoro-4-methyl-6-oxo-1,6-dihydropyrimidin-2-yl)-4-(trifluoromethyl)benzyl]-1-[5-(trifluoromethyl)pyridin-2-yl]piperidine-4-carboxamide], 14 nM.
For `Cc1cc(=O)[nH]c(-c2c(C(F)(F)F)ccc(CNC(=O)C3CCN(c4ccc(C(F)(F)F)cn4)CC3)c2F)n1` [Example 34, N-[2-fluoro-3-(4-methyl-6-oxo-1,6-dihydropyrimidin-2-yl)-4-(trifluoromethyl)benzyl]-1-[5-(trifluoromethyl)pyridin-2-yl]piperidine-4-carboxamide], the 50% inhibitory concentration (IC50) was less than 1 nM.
As for `Cc1nc(-c2c(C(F)(F)F)ccc(CNC(=O)C3CCN(c4ccc(C(F)(F)F)cn4)CC3)c2F)[nH]c(=O)c1C` [Example 35, N-[3-(4,5-dimethyl-6-oxo-1,6-dihydropyrimidin-2-yl)-2-fluoro-4-(trifluoromethyl)benzyl]-1-[5-(trifluoromethyl)pyridin-2-yl]piperidine-4-carboxamide], the IC50 came out at 11 nM.
Take `O=C(NCc1ccc(C(F)(F)F)c(-c2nc(C(F)(F)F)cc(=O)[nH]2)c1F)C1CCN(c2cnc(C(F)(F)F)cn2)CC1` [Example 36, N-{2-fluoro-3-[6-oxo-4-(trifluoromethyl)-1,6-dihydropyrimidin-2-yl]-4-(trifluoromethyl)benzyl}-1-[5-(trifluoromethyl)pyrazin-2-yl]piperidine-4-carboxamide]: the IC50 came to 14 nM.
For `O=C(NCc1ccc(C(F)(F)F)c(-c2nc(C(F)(F)F)cc(=O)[nH]2)c1F)C1CCN(c2ncc(Cl)cc2F)CC1` [Example 37, 1-(5-chloro-3-fluoropyridin-2-yl)-N-{2-fluoro-3-[6-oxo-4-(trifluoromethyl)-1,6-dihydropyrimidin-2-yl]-4-(trifluoromethyl)benzyl}piperidine-4-carboxamide], the IC50 stood at 18 nM.
For the compound `O=C(NCc1ccc(C(F)(F)F)c(-c2nc(C(F)(F)F)cc(=O)[nH]2)c1F)C1(F)CCN(c2ccc(C(F)(F)F)cn2)CC1` [Example 38, 4-fluoro-N-{2-fluoro-3-[6-oxo-4-(trifluoromethyl)-1,6-dihydropyrimidin-2-yl]-4-(trifluoromethyl)benzyl}-1-[5-(trifluoromethyl)pyridin-2-yl]piperidine-4-carboxamide], the half-maximal inhibitory concentration (IC50) is 7.8 nM.
In the case of `O=C(NCc1ccc(C(F)(F)F)c(-c2nc(C(F)(F)F)cc(=O)[nH]2)c1F)C1CCN(c2ncc(C(F)(F)F)cc2F)CC1` [Example 39, N-{2-fluoro-3-[6-oxo-4-(trifluoromethyl)-1,6-dihydropyrimidin-2-yl]-4-(trifluoromethyl)benzyl}-1-[3-fluoro-5-(trifluoromethyl)pyridin-2-yl]piperidine-4-carboxamide], the IC50 is less than 1 nM.
In the case of `O=C(NCc1ccc(C(F)(F)F)c(-c2nc(C(F)(F)F)cc(=O)[nH]2)c1F)C1CCN(c2ccc(OC(F)(F)F)cn2)CC1` [Example 40, N-{2-fluoro-3-[6-oxo-4-(trifluoromethyl)-1,6-dihydropyrimidin-2-yl]-4-(trifluoromethyl)benzyl}-1-[5-(trifluoromethoxy)pyridin-2-yl]piperidine-4-carboxamide], the 50% inhibitory concentration (IC50) worked out at 15 nM.
Regarding `O=C(NCc1ccc(C(F)(F)F)c(-c2nc3c(c(=O)[nH]2)CCC3)c1F)C1CCN(c2ccc(C(F)(F)F)cn2)CC1` [Example 41, N-[2-fluoro-3-(4-oxo-4,5,6,7-tetrahydro-3H-cyclopenta[d]pyrimidin-2-yl)-4-(trifluoromethyl)benzyl]-1-[5-(trifluoromethyl)pyridin-2-yl]piperidine-4-carboxamide], the IC50 stood at 26 nM.
For the compound `CCc1nc(-c2c(C(F)(F)F)ccc(CNC(=O)C3CCN(c4ccc(C(F)(F)F)cn4)CC3)c2F)[nH]c(=O)c1F` [Example 42, N-[3-(4-ethyl-5-fluoro-6-oxo-1,6-dihydropyrimidin-2-yl)-2-fluoro-4-(trifluoromethyl)benzyl]-1-[5-(trifluoromethyl)pyridin-2-yl]piperidine-4-carboxamide], the IC50 was less than 1 nM.
Then `Cc1nc(-c2c(C(F)(F)F)ccc(CNC(=O)C3CCN(c4ncc(Cl)cc4Cl)CC3)c2F)[nH]c(=O)c1F` [Example 44, 1-(3,5-dichloropyridin-2-yl)-N-[2-fluoro-3-(5-fluoro-4-methyl-6-oxo-1,6-dihydropyrimidin-2-yl)-4-(trifluoromethyl)benzyl]piperidine-4-carboxamide], with less than 1 nM; and `O=C(NCc1ccc(C(F)(F)F)c(-c2nc(C(F)F)cc(=O)[nH]2)c1F)C1CCN(c2ncc(Cl)cc2Cl)CC1` [Example 45, 1-(3,5-dichloropyridin-2-yl)-N-{3-[4-(difluoromethyl)-6-oxo-1,6-dihydropyrimidin-2-yl]-2-fluoro-4-(trifluoromethyl)benzyl}piperidine-4-carboxamide], with 15 nM; and `Cc1cc(=O)[nH]c(-c2c(C(F)(F)F)ccc(CNC(=O)C3CCN(c4ncc(Cl)cc4Cl)CC3)c2F)n1` [Example 46, 1-(3,5-dichloropyridin-2-yl)-N-[2-fluoro-3-(4-methyl-6-oxo-1,6-dihydropyrimidin-2-yl)-4-(trifluoromethyl)benzyl]piperidine-4-carboxamide], with 49 nM.
With `Cc1nc(-c2c(C(F)(F)F)ccc(CNC(=O)C3CCN(c4ncc(C(F)(F)F)cc4F)CC3)c2F)[nH]c(=O)c1F` [Example 48, N-[2-fluoro-3-(5-fluoro-4-methyl-6-oxo-1,6-dihydropyrimidin-2-yl)-4-(trifluoromethyl)benzyl]-1-[3-fluoro-5-(trifluoromethyl)pyridin-2-yl]piperidine-4-carboxamide], the 50% inhibitory concentration (IC50) is less than 1 nM.
In the case of `Cc1cc(=O)[nH]c(-c2c(C(F)(F)F)ccc(CNC(=O)C3CCN(c4ncc(C(F)(F)F)cc4F)CC3)c2F)n1` [Example 49, N-[2-fluoro-3-(4-methyl-6-oxo-1,6-dihydropyrimidin-2-yl)-4-(trifluoromethyl)benzyl]-1-[3-fluoro-5-(trifluoromethyl)pyridin-2-yl]piperidine-4-carboxamide] it was 21 nM.
